Laboratory results taken from US4785080A, “Labeled analytes” (Baker Instruments Corporation, priority 1985, dated 1988).
Several values for one entry are separate records, joined by “and”; a condition that tells them apart may be missing. Equal values may be shown once.

Key:
thyroxine antibody [1] = experiment: Reference displacement curve, thyroxine vs thyroxine-S-peptide, fluorogenic substrate (Example XVII); format: binding; settings: for Rate: antibody
Procedure: This Example illustrates the generation of a reference displacement curve using thyroxine-S peptide as the labeled analyte and 5'-0-acetyl uridine-3'-(4 methylumbelliferone-7-yl phosphate) as a fluorogenic substrate. The following reagents were prepared:
a. Thyroxine-S-Peptide labeled analyte: Material prepared as described in Examples I-IV, was diluted by a factor of 1:2000 in 0.1M sodium acetate buffer of pH 5.0.
b. Antibody: Antiserum was diluted by a factor of 1:2000 using 0.1M sodium acetate buffer of pH 5.0;
c. S-Protein: Purified material was brought to 2×10^-5 M using 0.1M sodium acetate buffer of pH 5.0;
d. Substrate: Seventeen milligrams of 5'-0-acetyl-2'-0-(tetrahydropyran-2-yl) uridine 3'-(4 methylumbelliferone-7-yl ammonium phosphate was stirred in 0.01HCl for 45 minutes and then extracted with ether. Fifty ml of 0.01M sodium acetate buffer, of pH 5, was then added to give the substrate solution;
e. Thyroxine antibody standards: Thyroxine solutions were freshly prepared to provide thyroxine concentrations of 0 ng/ml, 30 ng/ml, 60 ng/ml, 120 ng/ml, and 240 ng/ml in an aqueous medium containing human serum.
Seventy-five microliters of the standard thyroxine solution was pretreated with 20 ul of 0.5N sodium hydroxide […] at room temperature. One hundred microliters of the antibody and 300 ul of thyroxine-S peptide labeled analyte were then added, and the mixture was incubated for 30 minutes at room temperature. A mixture consisting of 1.8 ml of substrate and 100 ul S-protein was then added. After incubating for 5 minutes, the rate of increase of fluorescence was monitored over a 10 minute period. An Aminco Filter Fluorometer (Model J4-7440) equipped with an automatic 20 sample changer (Model 047-67059) was utilized with excitation at 325 nm and emission at 440 nm. The data points were taken for each sample at times 0, 5, and 10 minutes by an automatic data acquisition system. Table 7 summarizes the results:
In order to obtain a displacement curve, the data for duplicate points are averaged; and the % bound fraction (% B/Bo) is calculated from the equation: [formula] where Rate Bn is the rate corresponding to a non-zero standard and Rate Bo is that corresponding to the zero standard solution.

thyroxine antibody [2] = experiment: Reference displacement curve, thyroxine vs thyroxine-S-peptide, colorimetric, CentrifiChem 500 (Example XVIII); format: binding; settings: for Rate: antibody
Procedure: This Example illustrates the generation of a reference displacement curve for determination of unknown concentrations of the analyte thyroxine where a colorimetric substrate is utilized along with a centrifugal fast analyzer.
(§1) The following reagents were utilized:
a. Thyroxine S-peptide labeled analyte: Material prepared in the manner described in Examples I-IV was diluted by a factor of 1:400 with 0.1M sodium acetate buffer of pH 5.0;
b. Antibody: Antiserum was diluted by a factor of 1:300 with 0.1M sodium acetate buffer of pH 5.0;
c. Substrate: Uridine 3'-α-naphthyl phosphate;
d. S-protein: Sigma purified commercial material was brought to 2.5×10^-6 M in 0.1M sodium acetate buffer;
e. Dye: The 1,5-naphthalene disulfonic acid stabilized salt of diazo-psulfanilic acid (25 mg.) was dissolved in 1 ml of 0.1N HCl;
f. Standards: Thyroxine standards at concentrations of 0, 40, 80, 120, and 200 ng/ml were made up in a human serum containing solution.
The following settings were utilized on the CentrifiChem° 500 centrifugal fast analyzer: rotor temp, 30°; filter, 520 nm; To, 10 sec; t, 2 min; ABS 1.0 u; Blank, hold; test mode, Term; Print out, ABS; conc. factor, 0; test code 0.
The standard (20 ul), antibody and polypeptide labeled analyte were pipetted into the sample wells of channels 3 to 14 of the transfer disc. A mixture of 5 ul of the dye, 300 ul of substrate, and 20 ul of S-protein, was pipetted into the corresponding reagent wells along with 10 ul of acetate buffer. The loaded transfer disc was placed on the rotor, and the instrument was spun. […]

thyroxine antibody [3] = experiment: Reference displacement curve, thyroxine, interconverted pipetting of labeled analyte and S-protein (Example XIX); format: binding; settings: for 10^3 Rate: antibody
Description: This Example illustrates the interconversion of the thyroxine labeled analyte and S-protein where the S-protein is pipetted into the sample well and the labeled analyte is pipetted into the reagent well, in contrast to the preceding example where the reverse arrangement was used. Additionally, this Example illustrates the formulation of two reagent solutions for direct pipetting into the sample and reagent wells of the transfer disc using an automatic pipetter (Centrifichem® model P-500 pipetter). Thirdly, this Example illustrates the enhancement of dynamic range in relation to that obtained in Example XVIII by increasing the concentrations of the antibody and S-protein.
as §1
a. Thyroxine-S-peptide labeled analyte: Material prepared in the manner described in Examples I-IV was diluted by a factor of 1:50 with 0.1M sodium acetate buffer of pH 5.0;
b. Antibody: Antiserum was diluted by a factor of 1:30 with 0.1M sodium acetate buffer of pH 5.0;
c. Substrate: Uridine 3'-(α-naphthyl phosphate);
d. S-protein: Sigma purified commercial material was brought to […] in 0.1M sodium acetate buffer;
e. Dye: As in Example XVIII.
f. Standards: As in Example XVIII.
A mixture consisting of 500 ul of the substrate, 100 ul of the dye, and 250 ul of the conjugate was prepared. (Reagent A)
A second solution (Reagent B) was prepared by combining 300 ul of the antibody, reagent, 300 ul of the S-protein and 150 ul of 0.1N. sodium acetate buffer.
The following protocol was utilized for the assay: The standard (20 ul) and 65 ul of de-ionized H2 O were delivered to the sample well of the transfer disc by the sample probe of the P-500 pipetter. The reagent B (50 ul) was delivered to the sample well with the second reagent probe of the pipetter. Reagent A (250 ul) was delivered to the reagent well of the transfer disc with the first reagent probe of the pipetter. All three pipetting operations were done simultaneously in one cycle. The transfer disc was then placed on the CentrifiChem® 400 for analysis. The following settings were utilized for the CentrifiChem®: temperature, 30°; filter, 520 nm; T0, 10 seconds; T, 2 minutes; Abs, 3.0 u; Blank, hold; test mode, Term; print out, Abs; concentration factor, 0; test code, 0.

thyroxine antibody [4] = experiment: Effect of pH on immunoreactivity in the assay of thyroxine; format: binding; settings: pH from 5 to about 7
Description: The effect of pH on the assay should likewise be considered. […] While the naphthyl phosphate substrate described herein may be suitably used at a pH of 5, the preferred umbelliferone-type substrate needs a pH in the range of about 6 to about 8 for useful operation in the […] mode. Sensitivities in pH can perhaps be overcome by changing the charge characteristics of the labeled analyte, as by incorporating more basic groups on the analyte molecule. Also, the use of a more avid antisera for thyroxine should be helpful. It may also be helpful to modify the linking chemistry (e.g.--the site, type of linking groups).

RNase 1-118 = settings: combined with RNase 1-118; cited from earlier work

For N[C@@H](Cc1cc(I)c(Oc2cc(I)c(O)c(I)c2)c(I)c1)C(=O)O [thyroxine], the Rate (thyroxine antibody [1]; thyroxine standard 30 ng/ml) was 13.00 mv/min and 13.57 mv/min, the Rate (thyroxine antibody [1]; thyroxine standard 60 ng/ml) was 13.30 mv/min and 13.40 mv/min and the Rate (thyroxine antibody [1]; thyroxine standard 120 ng/ml) was 13.68 mv/min. For the same compound, the Rate (thyroxine antibody [1]; thyroxine standard 240 ng/ml) was 14.15 mv/min and 14.17 mv/min, the “% B/B0 (% bound fraction)” value (thyroxine antibody [1]; standard 30 ng/ml) was 67% and the “Rate (average of duplicates)” value (thyroxine antibody [1]; standard 30 ng/ml) was 13.28 mv/min. The “% B/B0 (% bound fraction)” value (thyroxine antibody [1]; standard 60 ng/ml) was 64%, the “Rate (average of duplicates)” value (thyroxine antibody [1]; standard 60 ng/ml) was 13.35 mv/min and the “% B/B0 (% bound fraction)” value (thyroxine antibody [1]; standard 120 ng/ml) was 51%. For the same compound, the “Rate (average of duplicates)” value (thyroxine antibody [1]; standard 120 ng/ml) was 13.68 mv/min, the “% B/B0 (% bound fraction)” value (thyroxine antibody [1]; standard 240 ng/ml) was 32% and the “Rate (average of duplicates)” value (thyroxine antibody [1]; standard 240 ng/ml) was 14.16 mv/min. The “rate response between the 0 standard and 200 ng/ml standard” value (thyroxine antibody [2]; 0 to 200 ng/ml) was 3.5 m.a.u./min, the Rate (thyroxine antibody [2]; standard 40 ng/ml) was 0.0208 a.u./min and 0.0222 a.u./min and the Rate (thyroxine antibody [2]; standard 80 ng/ml) was 0.0217 a.u./min and 0.0218 a.u./min. The Rate (thyroxine antibody [2]; standard 120 ng/ml) was 0.0224 a.u./min, the Rate (thyroxine antibody [2]; standard 200 ng/ml) was 0.0230 a.u./min and the “spread in rate covering the range of standard concentrations” value (thyroxine antibody [3]; 0-200 ng/ml) was 12 milliabsorbance units/min. The “spread in rate relative to Example XVIII” value (thyroxine antibody [3]; 0-200 ng/ml) was “about 4 times”, the “10^3 Rate” value (thyroxine antibody [3]; standard 40 ng/ml) was 57.8 a.u./min. and 58.3 a.u./min and the “10^3 Rate” value (thyroxine antibody [3]; standard 80 ng/ml) was 60.4 a.u./min. and 59.5 a.u./min. For the same compound, the “10^3 Rate” value (thyroxine antibody [3]; standard 120 ng/ml) was 62.0 a.u./min. and 64.8 a.u./min, the “10^3 Rate” value (thyroxine antibody [3]; standard 200 ng/ml) was 65.3 a.u./min and the “immunoreactivity as the pH is increased” value (thyroxine antibody [4]) was “immunoreactivity is decreased”.

In the case of “tetradecapeptide 111 to 124: synthesized tetradecapeptide corresponding to residues 111 to 124 of the original RNase (EGNPYVPVHFDASV; UniProt P61823 137-150, looked up, fragment)”, the “recovery of catalytic activity of RNase” value (RNase 1-118) is listed as “essentially the full catalytic activity of RNase was recovered”.
